Columns and labels:
[1] = test system: STZ-NA induced diabetes mice model; assay: In vivo antidiabetic effect in STZ-NA induced diabetes mice model; design: species or system CD1 mice; conditions: 100 mg/kg single dose, intragastric
Description: Glibenclamide was used as a positive control, in order to ensure that the damage over β-cells was partial and mice pancreas still produces insulin, that responds to a secretagogue such as sulfonylurea drug used in this work.
CD1 mice (20–25 g) were housed in groups of six (n = 6) under laboratory conditions. Before experimentation, all animals were fasted for 16 h with water ad libitum. All animal procedures were conducted in accordance with the Mexican Federal Regulations for Animal Experimentation and Care (SAGARPA, NOM-062-ZOO-1999), based on US National Institutes of Health Publication #85-23, revised 1985. Non-insulin-dependent diabetes mice model was induced in overnight fasted mice by a single i.p. injection of 100 mg/kg STZ, 15 min before the i.p. administration of 40 mg/kg of NA. Hyperglycaemia was established by the higher plasma glucose concentration, determined by glucometer after 2 weeks. The animals with glycaemia higher than 200 mg/dL were selected for the assay. The diabetic mice were separated into […] of six animals each (n = 6). Mice of experimental groups were administered with a suspension of the molecules 1–3 (100 mg/kg, prepared in 10% (v/v) tween 80). Control group mice were similarly treated with 10% tween 80. […] The samples of blood were collected from the caudal vein at 0, 1, 3, 5 and 7 h after administration of each compound. Blood glucose levels were estimated using a commercial glucometer. The percentage variation of glycemia for each group was calculated. Values are expressed as mean ± S.E.M. Statistical significance was estimated by ANOVA.

[2] = target: GPR40 (Homo sapiens, UniProt O14842); assay: GPR40 agonist calcium flux assay in hGPR40/Gα16/HEK293 cells; conditions: for Emax at 100 µM: HEK293, read-out: Maximal Response % (100 μM)
Chain of GPR40 (O14842 whole entry): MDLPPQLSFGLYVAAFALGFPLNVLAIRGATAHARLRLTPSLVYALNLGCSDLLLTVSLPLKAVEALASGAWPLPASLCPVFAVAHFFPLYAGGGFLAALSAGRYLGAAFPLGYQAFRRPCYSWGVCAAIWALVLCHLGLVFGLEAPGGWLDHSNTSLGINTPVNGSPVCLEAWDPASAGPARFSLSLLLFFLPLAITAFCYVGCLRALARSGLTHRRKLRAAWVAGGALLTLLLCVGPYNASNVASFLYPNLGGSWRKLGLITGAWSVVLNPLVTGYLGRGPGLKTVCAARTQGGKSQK
Description: Linoleic acid (LA), one of the endogenous ligands for GPR40, was designated as positive control.
This bioassay was previously described [2]. Briefly: About 4 × 10^4 h GPR40/HEK293 per well were seeded in 96-well plate. After culturing for 24 h, cells were loaded with 2 μmol/L Fluo-4 AM in Hanks’ balanced salt solution at 37 °C for 40 min.

[3] = test system: GLUT-4; assay: Relative mRNA expression of GLUT-4 in 3T3-L1 adipocytes; type: cell-based; conditions: 24 h treatment
From the text: 3T3-L1 fibroblasts were differentiated to the adipocyte phenotype in order to determine the action of compounds on PPARγ and GLUT-4 expression. […] The activation of PPARγ could reduce the glucose levels in diabetic patients due to insulin resistance reduction. […] Several evidences indicate that increased levels of GLUT-4 expression in skeletal muscle are critical for the regulation of glucose homeostasis.
Both assays were achieved as described elsewhere. Briefly: 3T3-L1 fibroblasts (9 × 10^5 cells per well) were cultured in 6-well plates in Dulbecco’s modified Eagle’s medium. After 2 days of confluence, the cells were differentiated to the adipocyte phenotype with 0.5 mM 3-isobutyl-1-methylxanthine, 0.25 μM dexamethasone acetate, and 0.8 μM insulin, for 48 h, followed by insulin alone for other 48 h. To determine the action of compounds on PPARγ and GLUT-4 expression, the cells were treated 24 h. RNA was isolated from cultured cells and two μg of total RNA were reverse-transcripted in a thermocycler. The enzyme was inactivated and finally samples were cooled. […] PCR was conducted and the threshold cycles (Ct) were measured in separate tubes and in duplicate. The ΔCt values were calculated in every sample for each gene of interest. Relative changes in the expression level of one specific gene (ΔΔCt) were calculated.

[4] = target: human recombinant AKR1B1 (Homo sapiens, UniProt P15121); assay: Aldose reductase (AKR1B1) inhibition assay
Description: Human recombinant AKR1B1 was purified by electrophoretic homogeneity as previously described [24]. The enzyme activity was corroborated at 37 °C following the decrease of absorbance at 340 nm. […] IC50 values was determined by nonlinear regression analysis. For each curve, five different concentrations of compounds were analyzed [25].

SMILES	EC50 [2]	Emax at 100 µM [2]	Increase in GLUT-4 levels (mRNA expression) [3]	further results
O=C(O)CCc1ccc(OCc2cccc(-c3ccccc3)c2)cc1 [Compound 1, 3-[4-(Biphenyl-3-ylmethoxy)phenyl]propanoic acid]	0.075 ± 0.02 µM	98 ± 10%	–	In vivo antidiabetic activity (in words) ([1]; STZ-NA diabetic mice): lack of in vivo activity
O=C(O)CCc1ccc(OCc2cccc3ccccc23)cc1 [Compound 2, 3-[4-(1-Naphthylmethoxy)phenyl]propanoic acid]	–	–	2 to 4 times	Decrease of blood glucose levels ([1]; 7 h after administration, STZ-NA diabetic mice): ~80%
N#Cc1ccccc1-c1ccc(COc2ccc(CCC(=O)O)cc2)cc1 [Compound 3, 3-{4-[(2′-Cyanobiphenyl-4-yl)methoxy]phenyl} propanoic acid]	–	–	2 to 4 times	Glucose lowering effect (variation of glycemia) ([1]; at 3 h): −20%; Glucose lowering effect (variation of glycemia) ([1]; at 5 h): −50%; Glucose lowering effect (variation of glycemia) ([1]; at 7 h): −60%
O=C(O)CCc1ccc(OCc2ccc3ccccc3n2)cc1 [Compound 4, 3-[4-(Quinolin-2-ylmethoxy)phenyl]propanoic acid]	~100 µM	84%	–	–
O=C(O)CCc1ccc(OCC(=O)Nc2nc3ccccc3s2)cc1 [Compound 5, 3-{4-[2-(1,3-Benzothiazol-2-ylamino)-2 oxoethoxy]phenyl}propanoic Acid]	> 100 µM	9.9%	–	IC50 [4]: 23.3 µM; GPR40 agonistic activity (in words) ([2]; calcium assay): inactive
CCCCC/C=C\C/C=C\CCCCCCCC(=O)O [LA, Linoleic acid, reference compound]	8.3 ± 1.7 µM	100%	–	–
